Values joined by “and” are separate entries in the source; they are usually repeats but may differ in a detail not shown here. Equal entries are not always repeated.
Tests used:
Format in all cases: in vivo
[1] = tested on: model rat of diabetes (streptozotocin); assay: Test 3: bladder capacity and urination efficiency by intravesical pressure measurement under anesthesia, STZ diabetes model rat; settings: 8 mg/kg daily i.p. for 8 weeks, mean ± S.E.
Experimental: (§1) To a rat, 65 mg/kg of streptozotocin (STZ) was administered intraperitoneally to prepare a model rat of diabetes. After intraperitoneal administration of Compound 4 obtained in Preparation Example 4 at a daily dose of 8 mg/kg for 8 weeks from two days after administration of STZ, the conduction rate of stimulus to sciatic nerve was measured by inserting a needle electrode for potential measurement into the vicinity of the right sciatic nerve, right Achilles tendon, and right plantar. Measurement was conducted three times and the mean of them was designated as the nerve stimulus conduction rate of the rat. Each group consisted of 10 to 12 rats.
In a similar manner to Test 1, Compound 4 obtained in Preparation Example 4 was administered intraperitoneally to a rat at a daily dose of 8 mg/kg for 8 weeks from two days after administration of STZ. The intravesical pressure of the rat was then measured under anesthesia, whereby bladder capacity and urination efficiency were determined.
The urination efficiency was determined from an excreted quantity/bladder capacity ratio.
Urination efficiency (%)=100×excreted quantity/bladder capacity

[2] = tested on: model rat of diabetes (streptozotocin); assay: Test 1: neural stimulus conduction rate (sciatic nerve) in STZ diabetes model rat; settings: STZ (65 mg/kg i.p.) diabetes rat, 8 mg/kg daily i.p. for 8 weeks, mean ± S.E.
Experimental: as §1

[3] = tested on: model rat of diabetes (streptozotocin); assay: Test 2: maximum quantity excreted by single urination, metabolic cage, STZ diabetes model rat; settings: 8 mg/kg daily i.p. for 8 weeks, recorded for 24 hours in metabolic cage, mean ± S.E.
Experimental: as §1
In a similar manner to Test 1, Compound 4 obtained in Preparation Example 4 was administered intraperitoneally to a rat at a daily dose of 8 mg/kg day for 8 weeks from two days after administration of STZ. Its urination pattern such as urination frequency and urination amount was then recorded for 24 hours at 2.5-min intervals by using a metabolic cage.

## CC1=C(CCCCCCCCCCCCCCCO)C(C)(C)CCC1=O [Compound 4, 3-(15-Hydroxypentadecyl)-2,4,4-trimethyl-2-cyclohexen1-one]
[1]
  Bladder capacity (urination-inducing): 0.54 ± 0.07 mL
  Urination efficiency (100×excreted quantity/bladder capacity): 75.0±6.1%
[2]
  Conduction rate of stimulus to nerve: 45.5 m/sec and 45.5 ± 1.2 m/sec
[3]
  Maximum amount excreted by single urination: 3.71 ± 0.26 mL
